Measured values as given in PMC5550456, “Vitamin B12 as a carrier of peptide nucleic acid (PNA) into bacterial cells” (Scientific Reports, 2017).
Where no end group is shown, it is not given here.

Experiments:
[1] = system: mRNA of the reporter gene mrfp1 expressing Red Fluorescent Protein; assay: Inhibition of RFP synthesis (red fluorescence) in E. coli carrying pBBR(rfp); format: cell-based, Escherichia coli K-12 MG1655; settings: overnight treatment, 0–16 µM
Experimental: E. coli TG1[58] was used for plasmid construction. For triparental mating, E. coli DH5α carried the helper plasmid pRK2013[59] and E. coli S17-1[60] was the mrfp1 plasmid donor. E. coli K-12 MG1655[61], and Salmonella enterica subsp. enterica serovar Typhimurium LT2-R (rifampicin resistant mutant of wild-type S. Typhimurium LT2[62]) were used in PNA delivery experiments. To prepare inocula, all strains were grown overnight in lysogeny broth (LB) at 37 °C with shaking. […] Cultures were supplemented with appropriate antibiotics to prevent plasmid loss.
The effect of the different PNA conjugates and controls on the red fluorescence of bacterial cells was determined using a standard microdilution method[67] in concentration range 0–16 µM. […] Following overnight incubation at 37 °C with shaking, the plates were vigorously shaken (double orbital) for 10 sec and then the cell density (OD600) and fluorescence (λ excitation – 584 nm; λ emission – 610 nm) were measured using a plate reader (Microplate Reader Biotek Synergy H1MFDG). The cell suspensions were also examined by light and fluorescence microscopy using a Nikon Eclipse Ni-U microscope (Figure S1).
To obtain relative fluorescence values (RFU), the background media noise was subtracted from each data point for both cell density (OD600) and fluorescence. […]

[2] = system: E. coli; assay: Effect on bacterial growth (OD600) of E. coli; format: cell-based, Escherichia coli; settings: up to the tested 16 μM concentrations
Experimental: (§1) The effect of the different PNA conjugates and controls on the red fluorescence of bacterial cells was determined using a standard microdilution method[67] in concentration range 0–16 µM. Cultures grown to exponential phase in Davis Minimal Broth were diluted to ~5 × 10^5 CFU/ml. These cell suspensions were added to wells of sterile 96-well plates containing different concentrations of the tested compounds. Following overnight incubation at 37 °C with shaking, the plates were vigorously shaken (double orbital) for 10 sec and then the cell density (OD600) and fluorescence (λ excitation – 584 nm; λ emission – 610 nm) were measured using a plate reader (Microplate Reader Biotek Synergy H1MFDG). The cell suspensions were also examined by light and fluorescence microscopy using a Nikon Eclipse Ni-U microscope (Figure S1).

[3] = cited from earlier work
Experimental: There was no decrease in OD600 upon overnight treatment with the conjugates (up to the tested 16 μM concentrations). Free vitamin B12 has no antibacterial activity at concentrations up to 100 μg/ml[52].

[4] = system: S. Typhimurium; assay: Effect on bacterial growth (OD600) of S. Typhimurium; format: cell-based, Salmonella Typhimurium; settings: up to the tested 16 μM concentrations
Experimental: as §1

[5] = system: some mammalian cells; settings: cited from earlier work
Source text: (§2) The most serious drawback, which currently precludes the use of this approach, is poor delivery of the oligonucleotides into bacterial cells. The bacterial cell wall prevents the efficient uptake of short oligonucleotides from the environment[14] and non-invasive delivery of PNAs is extremely difficult. To overcome this problem, chemical conjugation of PNA to a variety of cell-penetrating peptides has been tested, [15], [16]. The most commonly used conjugate of PNA with the peptide (KFF)3K was delivered with high efficiency in vitro. However, the activity of (KFF)3K-PNA conjugates was drama ...

[6] = cited from earlier work; remark: listed apart in the source
Source text: as §2

Substance | inhibition of RFP synthesis / mrfp1 expression (in words) [1] | bacterial growth, OD600 after overnight incubation [2] | concentration without antibacterial activity [3] [µg/mL] | bacterial growth, OD600 after overnight incubation [4] | histamine release [5] | concentration with hemolytic activity [6] [ng/mL]
cyanocobalamin [vitamin B12] | Neither B12–(CH2)12-PNA(scrambled) (Fig. 6) nor free vitamin B12 (data not shown) had any inhibitory effect | slight increase of OD600 | > 100 | slight increase of OD600 | – | –
KFFKFFKFFK-NH2 [(KFF)3K only] | – | – | – | – | initiates histamine release | 40000
